Reference: US8404677B2, “Kinase inhibitors” (Genosco, priority 2009, dated 2013)

Assays:
[1] = tested on: TNF-α release in THP-1 cells, IgG stimulation; test: SYK dependent TNF-α release assay (IgG stimulation); type: cell-based, human
Protocol: Compounds of the invention were tested for their TNF-α release effect on THP-1 cells. For SYK dependent TNF-α release assay (i.e., via IgG stimulation), THP-1 cells derived from human monocytic cells were obtained from the American Type Culture Collection (ATCC, Manassas, Va.). This cell line was maintained with an Roswell Park Memorial Institute (RPMI) medium (GIBCO™) containing 10 fetal bovine serum (FBS; GIBCO™) and 0.05 mM 2-mercaptoethanol. The THP-1 cells were seeded at 1×10^5 cells/100 μL/well into human IgG ([…], INVITROGEN™)-coated 96 well culture plate, and serially diluted compound was then added. After an 18-hour incubation period at 37° C., supernatants were collected for the determination of the TNF-α level by enzyme-linked immunosorbent assay (ELISA), and the remaining cells were subjected to an MTT (yellow tetrazolium salt) assay to determine the cytotoxic effects of compound.

HL-60(TB) = test: cells; type: cell-based; conditions: HL-60(TB) (Leukemia)
HOP-92 = test: cells; type: cell-based; conditions: HOP-92 (NSCLC)
NCI-H23 = test: cells; type: cell-based; conditions: NCI-H23 (NSCLC)
NCI-H322M = test: cells; type: cell-based; conditions: NCI-H322M (NSCLC)
NCI-H522 = test: cells; type: cell-based; conditions: NCI-H522 (NSCLC)
SF-268 = test: cells; type: cell-based; conditions: SF-268 (CNS Cancer)
SNB-19 = test: cells; type: cell-based; conditions: SNB-19 (CNS Cancer)
LOX IMVI = test: cells; type: cell-based; conditions: LOX IMVI (Melanoma)
M14 = test: cells; type: cell-based; conditions: M14 (Melanoma)
UACC-257 = test: cells; type: cell-based; conditions: UACC-257 (Melanoma)
OVCAR-5 = test: cells; type: cell-based; conditions: OVCAR-5 (Ovarian Cancer)
A498 = test: cells; type: cell-based; conditions: A498 (Renal Cancer)
CAKI-1 = test: cells; type: cell-based; conditions: CAKI-1 (Renal Cancer)
PC-3 = test: cells; type: cell-based; conditions: PC-3 (Prostate Cancer)
MDA-MB-468 = test: cells; type: cell-based; conditions: MDA-MB-468 (Breast Cancer)
PYK2 = PYK2 (Homo sapiens, UniProt Q14289); test: Inhibition of enzymatic kinase activity (LANCE Ulight); type: biochemical; design: Purified full-length human SYK, ZAP70, PIM1, PYK2; purchased Carna Biosciences; conditions: at 1 μM concentration; read-out: PYK2 percentage inhibition
Protocol: (§1) Inhibition of Enzymatic SYK, ZAP70, PYK2, FAK, PIM1, RET, FLT3, JAK2 and LRRK2 Kinase Activity
(§2) Compounds of the invention were initially diluted to 10 mM in 100% DMSO (CALBIOCHEM™) for storage and made into kinase buffer solution to create a compound concentration ranging from 1 uM and 10 uM. Serial dilutions of compounds of the invention were dispensed into a 96-well plate (GREINER BIOSCIENCES™) at 6 μL each. Purified full-length human SYK, ZAP70, PIM1, PYK2 and truncated human FAK, RET, FLT3, JAK2, and LRRK2 (CARNA BIOSCIENCES™) were diluted in kinase buffer and added to the compound solutions and pre-incubated for 30 minutes at room temperature (1 hour for PYK2). […] The reaction mixture was incubated for 1 hour (2 hours for PYK2). Following the incubation, the stop solution made with EDTA, water, and Lance detection buffer ([…]™) was added (12 μL each) to stop phosphorylation.

SYK = SYK (Homo sapiens, UniProt P43405); test: as above; type: biochemical; design: Purified full-length human SYK, ZAP70, PIM1, PYK2; purchased Carna Biosciences; conditions: at 1 μM concentration; read-out: SYK percentage inhibition
Protocol: as §1, §2

[2] = Homo sapiens, read-out: LC50 (the source's name)

PYK2, sequence (Q14289 whole entry): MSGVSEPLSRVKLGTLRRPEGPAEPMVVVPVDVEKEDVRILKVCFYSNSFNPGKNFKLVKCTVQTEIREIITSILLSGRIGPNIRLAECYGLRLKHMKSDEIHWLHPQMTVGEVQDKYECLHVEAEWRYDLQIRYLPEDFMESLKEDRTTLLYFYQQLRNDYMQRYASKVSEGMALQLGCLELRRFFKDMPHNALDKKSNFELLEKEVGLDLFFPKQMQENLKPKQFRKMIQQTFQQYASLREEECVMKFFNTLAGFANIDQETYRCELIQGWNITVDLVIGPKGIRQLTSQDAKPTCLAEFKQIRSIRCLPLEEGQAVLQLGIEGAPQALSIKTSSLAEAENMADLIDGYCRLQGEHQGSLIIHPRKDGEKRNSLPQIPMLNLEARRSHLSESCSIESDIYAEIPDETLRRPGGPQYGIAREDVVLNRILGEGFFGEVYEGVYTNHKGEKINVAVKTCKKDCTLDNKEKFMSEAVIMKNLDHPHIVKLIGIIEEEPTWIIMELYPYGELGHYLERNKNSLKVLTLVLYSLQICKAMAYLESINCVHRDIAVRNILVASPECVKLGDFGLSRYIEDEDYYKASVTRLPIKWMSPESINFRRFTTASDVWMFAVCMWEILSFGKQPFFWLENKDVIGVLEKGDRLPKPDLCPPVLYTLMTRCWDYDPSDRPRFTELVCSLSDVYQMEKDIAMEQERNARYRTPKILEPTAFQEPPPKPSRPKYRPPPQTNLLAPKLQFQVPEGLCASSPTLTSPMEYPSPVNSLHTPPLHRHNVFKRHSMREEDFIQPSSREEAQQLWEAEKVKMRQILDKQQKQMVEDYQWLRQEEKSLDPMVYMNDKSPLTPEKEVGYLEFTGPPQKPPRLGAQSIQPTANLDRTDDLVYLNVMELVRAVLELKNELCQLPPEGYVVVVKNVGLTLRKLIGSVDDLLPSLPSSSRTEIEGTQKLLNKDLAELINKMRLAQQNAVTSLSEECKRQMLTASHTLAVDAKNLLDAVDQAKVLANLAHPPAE

With O=c1[nH]ccc2nc(N3CCC(O)CC3)nc(Nc3cccc(C(F)(F)F)c3)c12 [Compound 6, 2-(4-hydroxypiperidin-1-yl)-4-(3-(trifluoromethyl)phenylamino)pyrido[4,3-d]pyrimidine-5(6H)-one] the inhibition at 0.3 µM ([1]; Homo sapiens, IgG stimulation, At 0.3 μM, THP-1, read-out: Inhibition of TNF-α Release (percentage inhibition)) was 51.9%, the inhibition at 1 µM ([1]; Homo sapiens, IgG stimulation, At 1 μM, THP-1, read-out: Inhibition of TNF-α Release (percentage inhibition)) was 83% and the “percentage inhibition of TNF-α release compared with R406” value ([1]; IgG stimulated release, 0.3 μM) was “greater than those exhibited by R406”. It also gave a TGI (HL-60(TB)) of 5.01 µM, a GI50 (HL-60(TB); Homo sapiens) of 0.871 µM and an IC50 (HL-60(TB); Homo sapiens) of 1.86 µM. For the same compound, the CC50 (HL-60(TB); [2]) was 100 µM, the TGI (HOP-92) was 100 µM and the GI50 (HOP-92; Homo sapiens) was 100 µM. For the same compound, the IC50 (HOP-92; Homo sapiens) was at least 100 µM, the CC50 (HOP-92; [2]) was 100 µM and the GI50 (NCI-H23; Homo sapiens) was 3.24 µM. For the same compound, the IC50 (NCI-H23; Homo sapiens) was 6.92 µM, the CC50 (NCI-H23; [2]) was 50.1 µM and the TGI (NCI-H23) was 13.8 µM. It also gave a GI50 (NCI-H322M; Homo sapiens) of 2.29 µM, an IC50 (NCI-H322M; Homo sapiens) of 21.4 µM and a CC50 (NCI-H322M; [2]) of 100 µM. It also gave a TGI (NCI-H322M) of 28.8 µM, a GI50 (NCI-H522; Homo sapiens) of 2.34 µM and an IC50 (NCI-H522; Homo sapiens) of 7.59 µM. It also gave a CC50 (NCI-H522; [2]) of 34.7 µM, a TGI (NCI-H522) of 10 µM and a GI50 (SF-268; Homo sapiens) of 3.09 µM. For the same compound, the IC50 (SF-268; Homo sapiens) was 12.9 µM, the CC50 (SF-268; [2]) was 100 µM and the TGI (SF-268) was 35.5 µM. For the same compound, the GI50 (SNB-19; Homo sapiens) was 18.2 µM, the IC50 (SNB-19; Homo sapiens) was 64.6 µM and the CC50 (SNB-19; [2]) was 100 µM. For the same compound, the TGI (SNB-19) was 100 µM, the GI50 (LOX IMVI; Homo sapiens) was 1.41 µM and the IC50 (LOX IMVI; Homo sapiens) was 2.63 µM. For the same compound, the CC50 (LOX IMVI; [2]) was 91.2 µM, the TGI (LOX IMVI) was 16.6 µM and the GI50 (M14; Homo sapiens) was 1.55 µM. The IC50 (M14; Homo sapiens) was 3.31 µM, the CC50 (M14; [2]) was 32.4 µM and the TGI (M14) was 8.32 µM. The GI50 (UACC-257; Homo sapiens) was 4.27 µM, the IC50 (UACC-257; Homo sapiens) was 8.71 µM and the CC50 (UACC-257; [2]) was 45.7 µM. The TGI (UACC-257) was 12.9 µM, the GI50 (OVCAR-5; Homo sapiens) was 28.2 µM and the IC50 (OVCAR-5; Homo sapiens) was 74.1 µM. For the same compound, the CC50 (OVCAR-5; [2]) was 100 µM, the TGI (OVCAR-5) was 93.3 µM and the TGI (A498) was 100 µM. The GI50 (A498; Homo sapiens) was 2.51 µM, the IC50 (A498; Homo sapiens) was at least 100 µM and the CC50 (A498; [2]) was 100 µM. The TGI (CAKI-1) was 6.31 µM, the GI50 (CAKI-1; Homo sapiens) was 0.282 µM and the IC50 (CAKI-1; Homo sapiens) was 1.29 µM. It also gave a CC50 (CAKI-1; [2]) of 100 µM, a GI50 (PC-3; Homo sapiens) of 2.29 µM and an IC50 (PC-3; Homo sapiens) of 4.68 µM. The CC50 (PC-3; [2]) was 93.3 µM, the TGI (PC-3) was 12.9 µM and the GI50 (MDA-MB-468; Homo sapiens) was 1.78 µM. It also gave an IC50 (MDA-MB-468; Homo sapiens) of 4.68 µM, a CC50 (MDA-MB-468; [2]) of 100 µM and a TGI (MDA-MB-468) of 7.08 µM. For the same compound, the inhibition at 1 µM (PYK2) was 83% and the inhibition at 1 µM (SYK) was 88%.
